Results: ChEMBL document CHEMBL5053522, “Synthesis of 3-octadecanoxypropyl 6-deoxy-6-sulfo-α-d-glucopyranoside (ODSG) as a lipase-resistant SQAP derivative” (2021)

System: A549
Experiment: Cytotoxicity against human A549 cells assessed as survival rate upto 170 uM by CCK8 assay relative to control
Assay type: functional
Conditions: up to 170 µM

Structure (SMILES)	Activity [%]
CCCCCCCCCCCCCCCCCCOCCCO[C@H]1O[C@H](CS(=O)(=O)[O-])[C@@H](O)[C@H](O)[C@H]1O.[Na+]	>70
CCCCCCCCCCCCCCCCCC(=O)OCCCO[C@H]1O[C@H](CS(=O)(=O)[O-])[C@@H](O)[C@H](O)[C@H]1O.[Na+]	70
